Laboratory results published in patent publication US20230392127A1, “METHOD FOR CONSTRUCTION OF ATOPIC DERMATITIS MODEL BY USING PLURIPOTENT STEM CELL-DERIVED SKIN ORGANOID” (KANGSTEM BIOTECH CO., LTD., priority 2020, published 2023).

Key:
[1] = tested on: induced pluripotent stem cell-derived skin organoids; assay: Skin organoid size and cartilage formation after Wnt signaling pathway activation (brightfield images); assay type: cell-based, human
Method: A skin organoid was cultured based on the literature disclosing an existing skin organoid differentiation protocol using induced pluripotent stem cell lines (Lee, J. et al. Hair-bearing human skin generated entirely from pluripotent stem cells. Nature 582, 399-404(2020)). The induced pluripotent stem cell colony was separated into small cell populations using ReLeSR™ (Stem Cell Technology) and then separated into single cells using Accutase (ThermoFisher). For embryoid body formation, 1000 single cells were aliquoted into each well of a U-bottom low-attachment 96-well plate (Corning). Essential 8 (Gibco) supplemented with Y-27632 (20 μM) was used as an embryoid body culture solution. The single cells were cultured for 2 days until the embryoid body grew to a size of 300 to 500 μm. On day 2 of differentiation, the formed embryoid bodies were transferred to a culture solution including 2% Matrigel (Matrigel; Corning), 10 μM SB431542 (Tocris), 4 ng/ml FGF2 (PeproTech) and 15 ng/ml BMP4 (PeproTech) for non-neural ectoderm differentiation induction. […] The skin organoid to be analyzed was photographed with an EVOS XL Core brightfield system microscope (Thermo Fisher) at ×40 magnification. […]

[2] = tested on: cartilage expression markers COL2A, ACAN, and SOX9; assay: Real-time PCR of cartilage expression markers in skin organoids; assay type: cell-based, human; settings: skin organoids on day 69; real-time PCR normalized to GAPDH; CHIR(+) vs CHIR(-); FIG. 8
Method: As a method for evaluating gene expression, cells were lysed and genes were extracted using a lysis buffer, and gene expression was quantified using RT-PCR. To evaluate gene expression, total RNA was isolated with an RNeasy kit (Qiagen, Cat. No. 74106) and cDNA was prepared according to the manufacturer's instructions using Reverse Transcriptase III (Thermo Fisher Scientific, Cat. No. 4368814). Real-time PCR was performed using SRBR Green Master Mix (Thermo Fisher Scientific, Cat. No. A25776) and detection was performed using a Step One Plus Real-time PCR system (Applied Biosystems). The expression of genes was normalized to the expression of glyceraldehyde-3-phosphate dehydrogenase (GAPDH). The degree of gene expression was evaluated using primers specific for COL2A, ACAN, and SOX9 mRNAs.

SMILES: Cc1c[nH]c(-c2cnc(NCCNc3ccc(C#N)cn3)nc2-c2ccc(Cl)cc2Cl)n1 [CHIR-99021]
- cartilage formation in skin organoids ([1]; 0.5 to 8 μM added on day 6, organoids on days 38, 65 and 85, vs CHIR(-), FIG. 7): cartilage was not formed
- sizes of the organoids ([1]; 0.5 to 8 μM added to culture solution on day 6 of differentiation, compared to skin organoids generated by the existing method (CHIR(-)), FIGS. 6 and 7): remarkably increased
- gene expression level of cartilage expression marker ACAN [2]: remarkably reduced
- gene expression level of cartilage expression marker COL2A [2]: remarkably reduced
- gene expression level of cartilage expression marker SOX9 [2]: remarkably reduced
